Assay results published in ChEMBL document CHEMBL1127003, “N-oleoyl-1,2,3,4-tetrahydroisoquinolines as conformationally restricted inhibitors of acyl-CoA:cholesterol acyl transferase (ACAT)” (Bioorg Med Chem Lett, 1993).

Experiments:
[1] = target: T1, Sterol O-acyltransferase 1 (Rattus norvegicus, UniProt O70536); test: Inhibitory activity was evaluated in rat liver microsomes using Acyl coenzyme A:cholesterol acyltransferase microsomal assay.; set-up: species or system Microsome
T1 sequence (O70536 whole entry): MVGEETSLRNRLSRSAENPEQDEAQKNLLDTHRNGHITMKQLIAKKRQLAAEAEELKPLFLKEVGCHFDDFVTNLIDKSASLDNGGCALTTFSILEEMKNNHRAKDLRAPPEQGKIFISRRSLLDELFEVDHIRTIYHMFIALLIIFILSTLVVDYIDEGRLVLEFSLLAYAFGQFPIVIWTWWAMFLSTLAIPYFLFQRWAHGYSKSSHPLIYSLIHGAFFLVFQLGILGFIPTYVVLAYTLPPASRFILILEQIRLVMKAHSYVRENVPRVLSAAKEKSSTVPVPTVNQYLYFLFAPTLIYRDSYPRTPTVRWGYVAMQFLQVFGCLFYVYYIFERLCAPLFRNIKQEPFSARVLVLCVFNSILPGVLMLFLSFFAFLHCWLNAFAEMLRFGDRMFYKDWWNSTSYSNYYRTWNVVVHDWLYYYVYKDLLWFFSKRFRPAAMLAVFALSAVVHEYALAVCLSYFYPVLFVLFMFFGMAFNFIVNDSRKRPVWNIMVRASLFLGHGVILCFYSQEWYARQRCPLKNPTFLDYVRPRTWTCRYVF

[2] = target: T2, Sterol O-acyltransferase 1 (Rattus norvegicus) (UniProt O70536); test: Percent inhibition of Acyl coenzyme A:cholesterol acyltransferase at a concentration of 25(micro M) was evaluated in rat liver microsomes using ACAT microsomal assay.; settings: Microsome
T2 sequence (whole entry): T1 sequence (O70536 whole entry)

Row | IC50 [1] [µM] | inhibition [2] [%] | SMILES
1 | 2.7 | 91 | CCCCCCCC/C=C\CCCCCCCC(=O)N1CCc2cc(OC)c(OC)cc2C1Cc1ccc(OC)c(OC)c1 (stereo unspecified)
2 |  | 73 | CCCCCCCC/C=C\CCCCCCCC(=O)N1CCc2cc(O)c(O)cc2C1Cc1ccccc1 (stereo unspecified)
3 |  | 63 | CCCCCCCC/C=C\CCCCCCCC(=O)N1CCc2cc(OC)c(OC)cc2C1Cc1ccccc1 (stereo unspecified)
4 |  | 67 | CCCCCCCC/C=C\CCCCCCCC(=O)N1Cc2cc(OC)c(OC)cc2CC1c1ccc(OC)c(OC)c1 (stereo unspecified)
5 | 0.15 | 87 | CCCCCCCC/C=C\CCCCCCCC(=O)NC(Cc1ccccc1)c1ccccc1 (stereo unspecified)
6 | 3.8 | 86 | CCCCCCCC/C=C\CCCCCCCC(=O)N1Cc2cc(OC)c(OC)cc2CC1c1ccccc1 (stereo unspecified)
7 | 4.8 | 81 | CCCCCCCC/C=C\CCCCCCCC(=O)N1CCc2ccccc2C1Cc1ccccc1 (stereo unspecified)
